“Also recorded” adds a separate entry of the source. Where two headings read alike, the source gives them in different places.
Tests used:
[1] = format: in vivo, human; details: for systemic accumulation: once daily administration of ciclesonide to children, with or without spacer; for time serum concentration detectable/observed after inhalation: present study, treatment not specified (discussion); for AUC: AUCτ, des-CIC in serum, Day 7, τ 24 h, mean ± SEM, N 29
[2] = Safety and tolerability monitoring; format: in vivo, human
[3] = Pulmonary function tests; format: in vivo, human
[4] = cited from earlier work
[5] = cited from earlier work; remark: listed apart in the source
[6] = healthy subjects and patients with asthma; cited from earlier work
[7] = system: glucocorticoid receptor; details: receptor affinity of dexamethasone = 100; cited from earlier work
[8] = adults, ciclesonide via HFA-MDI with AeroChamber Plus; cited from earlier work
[9] = Advair HFA; cited from earlier work
[10] = des-CIC, Treatment A 160 μg with spacer / Treatment C 160 μg no spacer, ANOVA
[11] = des-CIC, ciclesonide 80 μg with spacer vs 160 μg without spacer
[12] = des-CIC, ciclesonide 160 μg with spacer vs 160 μg without spacer

In the case of `CC(C)C(=O)OCC(=O)[C@@]12O[C@H](C3CCCCC3)O[C@@H]1C[C@H]1[C@@H]3CCC4=CC(=O)C=C[C@]4(C)[C@H]3[C@@H](O)C[C@@]12C` [ciclesonide], the systemic accumulation [1] is reported as “does not lead to systemic accumulation”, the “time up to which serum concentrations were detectable” value ([1]; parent ciclesonide, Treatment A and C (160 μg), LLOQ 0.01 μg/L) is reported as “up to 3 h” and the “time up to which serum concentrations were measurable” value ([1]; parent ciclesonide, Treatment B (80 μg with spacer), LLOQ 0.01 μg/L) is reported as “up to 1.5 h”. The “time serum concentration detectable/observed after inhalation” value [1] was “about 3 h”, the “relation of AEs to study medication” value ([2]; assessed by investigator and sponsor) was “not related” and the tolerability ([2]; ciclesonide 80 or 160 μg once daily, 7-day periods, with or without spacer) was “well tolerated”. For the same molecule, the “number of patients reporting AEs” value ([2]; during the three treatment periods, 37 patients) was 24, the “clinically relevant abnormalities (laboratory values) / adverse drug reactions” value ([2]; whole study) was “No clinically relevant abnormalities or adverse drug reactions; also recorded: No clinically relevant abnormalities” and the “change in lung function” value ([3]; between screening, Day 7 of each treatment period, and study end) was “did not change to any relevant extent”. For the same molecule, the “FEV1 at study end” value ([3]; mean ± SD, screening value 1.81 ± 0.44) was 1.76 ± 0.42 L, the oral bioavailability [4] was < 1% and the “bound to plasma protein” value [5] was “About 99%”. For the same molecule, the lung deposition [6] was “more than 50%”.
In the case of `C[C@]12C=CC(=O)C=C1CC[C@@H]1[C@@H]2[C@@H](O)C[C@@]2(C)[C@H]1C[C@H]1O[C@@H](C3CCCCC3)O[C@]12C(=O)CO` [des-CIC, desisobutyryl-ciclesonide], the “time up to which serum concentrations were detectable” value ([1]; des-CIC, 80 μg ciclesonide (Treatment B), LLOQ 0.01 μg/L) is reported as “up to 6 h”, the “time up to which serum concentration-time profile curves were obtained” value ([1]; des-CIC, 160 μg ciclesonide (Treatment A and Treatment C), LLOQ 0.01 μg/L) is reported as “up to 12 h” and the “AUCτ Ratio [% Ref]” value [1, 10] is reported as 127 % Ref. For the same molecule, the “Cmax Ratio [% Ref]” value [1, 10] was 155 % Ref, the “dose-normalized Cmax higher with spacer than without spacer” value [1, 11] was 63% and the “dose-normalized systemic exposure (AUCτ) higher with spacer than without spacer” value [1, 11] was 26%. For the same molecule, the “dose-normalized Cmax higher with spacer than without spacer” value [1, 12] was 55%, the “dose-normalized systemic exposure (AUCτ) higher with spacer than without spacer” value [1, 12] was 27% and the AUC ([1]; human, serum, inhaled, 80 ug, Treatment B 80 μg CIC with spacer) was 0.316 ± 0.022 ng·h/mL. The AUC ([1]; human, serum, inhaled, 160 ug, Treatment C 160 μg CIC no spacer) was 0.542 ± 0.042 ng·h/mL, the Tmax ([1]; human, serum, inhaled, tmax, des-CIC, similar for all treatments) was 42 min and the systemic accumulation [1] was “does not lead to systemic accumulation”. The “time serum concentration detectable/observed after inhalation” value [1] was “up to 12 h”, the “relative glucocorticoid receptor affinity” value [7] was 1200 and the oral bioavailability [4] was “less than 1%”. For the same molecule, the “bound to plasma protein” value [5] was “About 99%” and the “effect of spacer on PK” value [8] was “did not influence the PK”.
In the case of `C[C@@H]1C[C@H]2[C@@H]3CCC4=CC(=O)C=C[C@]4(C)[C@@]3(F)[C@@H](O)C[C@]2(C)[C@@]1(O)C(=O)CO` [dexamethasone], the “relative glucocorticoid receptor affinity” value [7] is listed as 100.
In the case of `CCC(=O)O[C@]1(C(=O)SCF)[C@H](C)C[C@H]2[C@@H]3C[C@H](F)C4=CC(=O)C=C[C@]4(C)[C@@]3(F)[C@@H](O)C[C@@]21C` [fluticasone propionate], the “increase of AUC0–last with spacer” value [9] is listed as 406% and the “increase of Cmax with spacer” value [9] is listed as 210%.

From paper PMC3666986 (Clinical Medicine Insights. Pediatrics, 2010)
